# Assay results reported in patent publication US9869616B2, “Hydrogel encapsulated cell patterning and transferring method and cell-based biosensor using the same” (UNIST ACADEMY-INDUSTRY RESEARCH CORPORATION, priority 2011, dated 2018).
# What was measured:
# [1] = tested on: araBAD promoter (PBAD) of pZBRG; test: Induction of RFP from the genetic circuit pZBRG (araBAD promoter) in hydrogel-encapsulated cells; format: cell-based, Escherichia coli
# [2] = tested on: strain DH10B with plasmid pTrc99A-gfp; test: Extracellular induction of hydrogel-encapsulated cells with pTrc99A-gfp (GFP expression) by the HPT method; format: cell-based, Escherichia coli; settings: 1 mM IPTG in agarose substrate; average of 10 hydrogel microparticles; GFP produced until 8 hours
# Experimental: Competent cells of the MG1655 and DH10B were transformed with synthetically engineered genetic circuits. Some plasmids were transferred from the Registry of Standard Biological Parts, and the others were constructed in the experiment with different antibiotic resistance marker genes. For the growth of these strains, each Escherichia coli culture was grown overnight on M 9 agar solid medium plates with appropriate antibiotics at 35° C. A single colony was used to inoculate 5 mL M9 media with 1% glucose, 1% tryptone, and either 100 μg/mL ampicillin or 30 μg/mL chloramphenicol. Thereafter, the cultures were then grown overnight (16 hours) with vigorous aeration (200 rpm in a rotary shaker), and OD600=1.5-2 cells (1-2 mL) were centrifuged at 5000 rpm for 5 min. The obtained pellet was resuspended with fresh M9 media to give bacterial suspensions with desired cell densities. […]
# The images of cell patterns were taken using a stereomicroscope (SZX16, Olympus, Japan) equipped with a CCD camera (DP72, Olympus, Japan) and a fluorescent light source (Xcite-200, ExFo Photonics solutions Inc., Mississauga, Canada) operated by the DP2-BSW software (Olympus, Japan). […] All image processing and quantification of fluorescent intensities were performed using Image J. (NIH, USA), and then results were plotted using Origin 7.1 (OriginLab, Northampton, Mass., USA). […]
Compound,"RFP expression of patterned cells ([1]; 400 mM arabinose in agarose substrate, in 8 hours)",threshold concentration (inducer gradient) ([1]; RFP gradient reaches saturated values in about 10 hours),cross-talk on simultaneous induction (RFP) ([1]; both tetracycline (1 μM) and arabinose (400 μM)),"fluorescent signals detected, separate induction ([1]; only arabinose (400 μM) in agarose substrate)",gene expression level (average GFP fluorescent intensity) [2] [AU]
O=C[C@@H](O)[C@H](O)[C@H](O)CO [arabinose],activated to express red fluorescent protein (RFP),relatively high,no significant cross-talk was observed,only RFP signals were detected,
"CC(C)S[C@@H]1O[C@H](CO)[C@H](O)[C@H](O)[C@H]1O [IPTG, isopropyl-beta-D-thiogalactopyranoside]",,,,,40
